Remaining activity data for 32 molecules are collected here from PMC8286840, “Identifying SARS-CoV-2 antiviral compounds by screening for small molecule inhibitors of Nsp3 papain-like protease” (Biochemical Journal, 2021).

Structures can show the parent of a compound that is named as a salt. Where two headings read alike, the source gives them in different places.

Assay [1] concerns the target T1, SARS-CoV-2 PLpro (nsp3 1564–1878) (Severe acute respiratory syndrome coronavirus 2, UniProt P0DTD1). The assay can be described thus: biochemical. More on the design: FRET-quenched peptide (Pro3) cleavage by PLpro, 10 min pre-incubation, slope over 20 min, normalised to no-compound control. The conditions noted are these: low concentration screen, read-out: % of control remaining.

For assay [2], the target named is T1, SARS-CoV-2 PLpro (nsp3 1564–1878). Put plainly: biochemical. More on the design: FRET-quenched peptide (Pro3) cleavage by PLpro, 10 min pre-incubation, slope over 20 min, normalised to no-compound control. The note with it: high concentration screen, read-out: % of control remaining.

In the case of `COc1cc(OC)c(NC(=O)Nc2cc(C)on2)cc1Cl` [PNU-120596], the remaining activity at 1.25 µM in assay [1] (Well no.=4964) stood at 98.4%. Besides, the remaining activity at 3.75 µM in assay [2] (Well no.=4964) came to 92.3%.
As to `CC(C)(C)n1nc(-c2ccc(Cl)cc2)c2c(N)ncnc21` [PP 2 - 3-(4-chlorophenyl) 1-(1,1-dimethylethyl)-1H-pyrazolo[3,4-d]pyrimidin-4-amine], the remaining activity at 1.25 µM in assay [1] (Well no.=2428) was 98.1%. Besides, the remaining activity at 3.75 µM in assay [2] (Well no.=2428) was determined as 101%.
As to `Nc1ncnc2c1c(-c1cnc3[nH]ccc3c1)nn2C1CCCC1` [PP-121], the remaining activity at 1.25 µM in assay [1] (Well no.=4958) came out at 91%. Further, the remaining activity at 3.75 µM in assay [2] (Well no.=4958) worked out at 92.2%.
On to `Cc1nc(N=Nc2ccc(S(=O)(=O)O)cc2S(=O)(=O)O)c(COP(=O)(O)O)c(C=O)c1O` [PPADS], for which the remaining activity at 1.25 µM in assay [1] (Well no.=1217) worked out at 102%. Further, the remaining activity at 3.75 µM in assay [2] (Well no.=1217) stood at 101%.
For `Cc1nc(N=Nc2cc(S(=O)(=O)O)c3cc([N+](=O)[O-])cc(S(=O)(=O)O)c3c2)c(COP(=O)(O)O)c(C=O)c1O` [PPNDS tetrasodium], the remaining activity at 1.25 µM in assay [1] (Well no.=1048) came out at 102%. Moreover, the remaining activity at 3.75 µM in assay [2] (Well no.=1048) is 103%.
As to `O=C(OCCN1CCOCC1)C1(c2ccccc2)CCCCC1` [PRE-084], the remaining activity at 1.25 µM in assay [1] (Well no.=1000) worked out at 98.1%. In addition, in assay [2] (Well no.=1000), the remaining activity at 3.75 µM was 100%.
In the case of `COCC1(CO)C(=O)C2CCN1CC2` (stereo not drawn) [PRIMA-1Met], the remaining activity at 1.25 µM in assay [1] (Well no.=6212) came to 101%. Also, the remaining activity at 3.75 µM in assay [2] (Well no.=6212) worked out at 99.5%.
Turning to `O=C1C2CCN(CC2)C1(CO)CO` [PRIMA-1], the remaining activity at 1.25 µM in assay [1] (Well no.=6486) is 96.7%. Moreover, the remaining activity at 3.75 µM in assay [2] (Well no.=6486) stood at 97.6%.
Consider `N#Cc1cc(CN2CCC(Nc3ncnc4sc(Cl)cc34)CC2)ccc1F` [PRX-08066], for which the remaining activity at 1.25 µM in assay [1] (Well no.=4792) came to 101%. Besides, the remaining activity at 3.75 µM in assay [2] (Well no.=4792) is 97.9%.
Turning to `O=P(O)(O)CP(=O)(O)OC[C@H]1O[C@@H](n2cnc3c(NCc4ccccc4)ncnc32)[C@H](O)[C@@H]1O` [PSB-12379], in assay [1] (Well no.=8745), the remaining activity at 1.25 µM was found to be 105%. Besides, in assay [2] (Well no.=8745), the remaining activity at 3.75 µM turned out to be 105%.
For the molecule `C[C@@]1(F)[C@H](O)[C@@H](CO)O[C@H]1n1ccc(N)nc1=O` [PSI-6130], the remaining activity at 1.25 µM in assay [1] (Well no.=7764) came out at 107%. Also, the remaining activity at 3.75 µM in assay [2] (Well no.=7764) was 100%.
Consider `C[C@@]1(F)[C@H](O)[C@@H](CO)O[C@H]1n1ccc(=O)[nH]c1=O` [PSI-6206], for which the remaining activity at 1.25 µM in assay [1] (Well no.=7710) was determined as 92.6%. Besides, the remaining activity at 3.75 µM in assay [2] (Well no.=7710) was 87.5%.
Consider `CCCCC1CCC(c2nc(-c3ccncc3)no2)CC1` (stereo not drawn) [PSN-375963], for which the remaining activity at 1.25 µM in assay [1] (Well no.=5398) turned out to be 106%. Besides, in assay [2] (Well no.=5398), the remaining activity at 3.75 µM worked out at 106%.
For `O=C(Nc1ccc(Cl)cc1)Nc1cccc(-c2cccc(N3CCCC3)n2)c1` [PSNCBAM-1], in assay [1] (Well no.=5820), the remaining activity at 1.25 µM was found to be 105%. Besides, the remaining activity at 3.75 µM in assay [2] (Well no.=5820) came to 97%.
In the case of `Cc1nc2cc(F)c(F)cc2n1-c1cncc(Nc2ccc(C(F)(F)F)cc2)n1` [PTC-028], in assay [1] (Well no.=7024), the remaining activity at 1.25 µM came to 106%. In assay [2] (Well no.=7024), the remaining activity at 3.75 µM came out at 96.8%.
`COc1cc(Br)c(Nc2nc(-c3c(C)nc4ncccn34)cs2)c(Br)c1` [PTC-209]: the remaining activity at 1.25 µM in assay [1] (Well no.=5643) came to 94.3%. For the same molecule, the remaining activity at 3.75 µM in assay [2] (Well no.=5643) was 95%.
Take `CC(C)NCCCn1c(Sc2cc3c(cc2I)OCO3)nc2c(N)ncnc21` [PU-H71]: the remaining activity at 1.25 µM in assay [1] (Well no.=8772) turned out to be 98.2%. Moreover, the remaining activity at 3.75 µM in assay [2] (Well no.=8772) stood at 95.7%.
For `COc1ccc(C(C)=O)c(O)c1` [Paeonol], the remaining activity at 1.25 µM was found to be 100% in assay [1] (Well no.=4045) and 105% in assay [1] (Well no.=8194). Also, the remaining activity at 3.75 µM is 101% in assay [2] (Well no.=4045) and 102% in assay [2] (Well no.=8194).
For the molecule `CC(=O)c1c(C)c2cnc(Nc3ccc(N4CCNCC4)cn3)nc2n(C2CCCC2)c1=O` [Palbociclib (hydrochloride)], the remaining activity at 1.25 µM in assay [1] (Well no.=7350) is 96.3%. In assay [2] (Well no.=7350), the remaining activity at 3.75 µM amounted to 97.5%.
On to `CC(=O)c1c(C)c2cnc(Nc3ccc(N4CCNCC4)cn3)nc2n(C2CCCC2)c1=O` [Palbociclib (isethionate)], for which the remaining activity at 1.25 µM in assay [1] (Well no.=7316) stood at 103%. For the same molecule, the remaining activity at 3.75 µM in assay [2] (Well no.=7316) was determined as 103%.
Turning to `Cc1nc2n(c(=O)c1CCN1CCC(c3noc4cc(F)ccc34)CC1)CCCC2O` (stereo not drawn) [Paliperidone], the remaining activity at 1.25 µM in assay [1] (Well no.=8197) was 109%. The remaining activity at 3.75 µM in assay [2] (Well no.=8197) was determined as 99.6%.
On to `COc1cc2c(cc1OC)-c1cc3ccc(OC)c(OC)c3c[n+]1CC2` [Palmatine chloride], for which the remaining activity at 1.25 µM in assay [1] (Well no.=3641) worked out at 101%. For the same molecule, the remaining activity at 3.75 µM in assay [2] (Well no.=3641) worked out at 99.2%.
Consider `CCCCCCCCCCCCCCCC(=O)O` [Palmitic acid], for which, in assay [1] (Well no.=7077), the remaining activity at 1.25 µM stood at 98.9%. Further, the remaining activity at 3.75 µM in assay [2] (Well no.=7077) stood at 94.2%.
On to `CCCCCCCCCCCCCCCC(=O)NCCc1ccc(O)c(O)c1` [Palmitoyl dopamine], for which, in assay [1] (Well no.=4261), the remaining activity at 1.25 µM is 101%. Besides, in assay [2] (Well no.=4261), the remaining activity at 3.75 µM was 98.2%.
Consider `COc1ccc(COc2cc3oc(=O)c4cc(C(C)O)ccc4c3cc2OC)cc1` (stereo not drawn) [Palomid 529], for which the remaining activity at 1.25 µM in assay [1] (Well no.=4860) is 102%. The remaining activity at 3.75 µM in assay [2] (Well no.=4860) was 98.2%.
In the case of `O=C1c2cccc3c2[C@H](CCC3)CN1[C@@H]1CN2CCC1CC2` [Palonosetron (Hydrochloride)], the remaining activity at 1.25 µM in assay [1] (Well no.=6614) stood at 98.5%. Further, the remaining activity at 3.75 µM in assay [2] (Well no.=6614) is 98%.
As for `O=C1c2cccc3c2[C@H](CCC3)CN1[C@@H]1CN2CCC1CC2` [Palonosetron HCl], in assay [1] (Well no.=4923), the remaining activity at 1.25 µM amounted to 99.3%. The remaining activity at 3.75 µM in assay [2] (Well no.=4923) is 98.2%.
For `Cc1cc(NC(=O)NCCN2CCC(O)(Cc3ccccc3)CC2)c2ccccc2n1` [Palosuran], the remaining activity at 1.25 µM in assay [1] (Well no.=7915) was 105%. The remaining activity at 3.75 µM in assay [2] (Well no.=7915) turned out to be 92.5%.
With `NCCC(O)(P(=O)(O)O)P(=O)(O)O` [Pamidronate Disodium], the remaining activity at 1.25 µM in assay [1] (Well no.=4773) amounted to 96.6%. For the same molecule, the remaining activity at 3.75 µM in assay [2] (Well no.=4773) is 97.3%.
`CC1(C)CCC[C@](C)([C@H]2CC[C@]3(C)[C@@H]2[C@H](O)C[C@@H]2[C@@]4(C)CC[C@H](O)C(C)(C)[C@@H]4CC[C@]23C)O1` [Panaxadiol]: the remaining activity at 1.25 µM in assay [1] (Well no.=3739) was found to be 100%. In addition, the remaining activity at 3.75 µM in assay [2] (Well no.=3739) amounted to 99.1%.
Consider `CC1(C)CCC[C@](C)([C@H]2CC[C@]3(C)[C@@H]2[C@H](O)C[C@@H]2[C@@]4(C)CC[C@H](O)C(C)(C)[C@@H]4[C@@H](O)C[C@]23C)O1` [Panaxatriol], for which the remaining activity at 1.25 µM in assay [1] (Well no.=3699) was determined as 94.8%. Moreover, the remaining activity at 3.75 µM in assay [2] (Well no.=3699) came to 101%.
As for `CC(=O)O[C@H]1C[C@@H]2CC[C@@H]3[C@H](CC[C@@]4(C)[C@H]3C[C@H]([N+]3(C)CCCCC3)[C@@H]4OC(C)=O)[C@@]2(C)C[C@@H]1[N+]1(C)CCCCC1` [Pancuronium bromide], the remaining activity at 1.25 µM in assay [1] (Well no.=808) worked out at 98.5%. Also, in assay [2] (Well no.=808), the remaining activity at 3.75 µM was 97.8%.
